In patent US10227345B2, “Compounds and methods for inhibiting fascin” (Cornell University, priority 2014, dated 2019):

Target: T1, human fascin 1 (Homo sapiens, UniProt Q16658)
T1 construct: GST (N, cleaved yes); made in house; host or cells: Escherichia coli BL21/DE3 (pGEX4T-fascin 1 plasmid)
Test: Fascin inhibition (actin bundling) assay, image-based
Assay type: biochemical
Settings: in the presence of 50 μm of the compound relative to bundle activity when the compound was not present; read-out: Inhibition (percentage reduction of bundle activity)
Method: Recombinant human fascin 1 was expressed as a GST fusion protein in BL21 Escherichia coli. One liter of 2YT medium with ampicillin was inoculated overnight with 3 mL of BL21/DE3 culture transformed with pGEX4T-fascin 1 plasmid and grown at 37° C. until attenuance at 600 nm (D600) reached about 0.8. The culture was then transferred to 18° C. and induced by the addition of 0.1 mM isopropyl β-d-thiogalactoside (IPTG) for 12 h. Bacteria were harvested by centrifugation at 5,000 r.p.m. for 10 min. The pellets were suspended in 30 mL of PBS supplemented with 0.2 mM PMSF, 1 mM DTT, 1% (v/v) Triton X-100 and 1 mM EDTA. After sonication, the suspension was centrifuged at 15,000 r.p.m. for 30 min to remove the cell debris. The supernatant was then incubated for 2 h with 4 mL of glutathione beads (Sigma) at 4° C. After extensive washing with PBS, the beads were resuspended in 10 mL of thrombin cleavage buffer (20 mM Tris-HCl pH 8.0, 150 mM NaCl, 2 mM CaCl2, 1 mM DTT). Fascin was released from the beads by incubation overnight with 40-100 U of thrombin at 4° C. After centrifugation, 0.2 mM PMSF was added to the supernatant to inactivate the remnant thrombin activity. The fascin protein was further concentrated with a Centricon® (Boca Raton, Fla.) filter to about 50 mg/mL.
Representative compounds described herein were tested for fascin inhibition activity. Purified fascin protein (15 μL of 0.5 μM) in buffer (100 mM KCl, 20 mM Tris/HCl, pH 7.5, 2 mM MgCl2) was added into each well of a clear 384-well flat-bottom plate (Corning) using Thermo Multidrop Combi (Fisher). Compound solutions (5 mM stock, 180 nL) were pin transferred from stock 384-well plates into the 384-well assay plates and incubated for 30 min. Then 15 μL of 0.5 μM polymerized actin (in 100 mM KCl, 20 mM Tris/HCl, pH 7.5, 2 mM MgCl2, 1 mM DTT, 1 mM ATP) (Cytoskeleton Inc.) was added, resulting in 30 μM final concentration for chemical compounds. […] Mixed solution (25 μL) was then transferred to one well in a black 384-well plate coated with poly-D-lysine, and stained actin bundles or F-actin would stick onto the poly-D-lysine plates. After the plates were thoroughly washed with 1×PBS for 3 times, the plate was imaged using an ImageXpress Micro High Content Screening System (Molecular devices). The images were processed and analyzed using MetaMorph software. The raw image data for each well was background-corrected by subtraction of the median intensities across all wells on the plate. The background-corrected data was used to compute the bundle length for each well. The negative control wells were employed for quality control: multiple DMSO-only control wells (16 wells/plate) were present on each assay plate.

Row | SMILES | inhibition at 50 µM [%]
1 | Cc1ncsc1C(=O)Nc1nn(Cc2ccc(C(F)(F)F)cc2)c2ccc(C(F)(F)F)cc12 [Compound 126, 4-methyl-N-(5-(trifluoromethyl)-1-(4-(trifluoromethyl)-bemzyl)-1H-indazol-3-yl)thiazole-5-carboxamide] | < 10
2 | Cc1occc1C(=O)Nc1nn(Cc2ccc(Cl)cc2)c2ccccc12 [Compound 67, N-(1-(4-chlorobenzyl)-1H-indazol-3-yl)-2-methylfuran-3-carboxamide] | 50
3 | Cc1ccsc1C(=O)Nc1nn(Cc2ccc(C(F)(F)F)cc2)c2ccccc12 [Compound 23, 3-methyl-N-(1-(4-(trifluoromethyl)benzyl)-1H-indazol-3-yl)thiophene-2-carboxamide] | < 10
4 | O=C(Nc1nn(Cc2ccc(C(F)(F)F)nc2)c2ccccc12)c1cccnn1 [Compound 96, N-(1-((6-(trifluoromethyl)pyridin-3-yl)methyl)-1H-indazol-3-yl)pyridazine-3-carboxamide] | < 10
5 | Cc1ncsc1C(=O)Nc1nn(Cc2ccc(C(F)(F)F)cc2)c2c(C(F)(F)F)cccc12 [Compound 115, 4-methyl-N-(7-(trifluoromethyl)-1-(4-(trifluoromethyl)benzyl)-1H-indazol-3-yl)thiazole-5-carboxamide] | < 10
6 | O=C(Nc1nn(Cc2ccc(C(F)(F)F)nc2)c2ccc(C(F)(F)F)cc12)c1cccnn1 [Compound 127, N-(5-(trifluoromethyl)-1((6-(trifluoromethyl)pyridin-3-yl)methyl)-1H-indazol-3-yl)pyridazine-3-carboxamide] | < 10
7 | Cc1occc1C(=O)Nc1nn(Cc2ccc(C(F)(F)F)nc2)c2ccccc12 [Compound 94, 2-methyl-N-(1-((6-(trifluoromethyl)pyridin-3-yl)methyl)-1H-indazol-3-yl)furan-3-carboxamide] | < 10
8 | Cc1occc1C(=O)Nc1nn(Cc2ccc(C(F)(F)F)cc2)c2c(C(F)(F)F)cccc12 [Compound 114, 2-methyl-N-(7-(trifluoromethyl)-1-(4-(trifluoromethyl)benzyl)-1H-indazol-3-yl)furan-3-carboxamide] | < 10
9 | Cc1ncsc1C(=O)Nc1nn(Cc2ccc(C(F)(F)F)nc2)c2ccccc12 [Compound 95, 4-methyl-N-(1-((6-(trifluoromethyl)pyridin-3-yl)methyl)-1H-indazol-3-yl)thiazole-5-carboxamide] | < 10
10 | O=C(Nc1nn(Cc2ccc(C(F)(F)F)nc2)c2ccccc12)c1ccoc1 [Compound 92, N-(1-((6-(trifluoromethyl)pyridine-3-yl)methyl)-1H-indazol-3-yl)furan-3-carboxamide] | < 10
11 | FC(F)(F)c1ccc(Cn2nc(-c3cccc4ccccc34)c3ccccc32)cc1 [Compound 145, 3-(naphthalen-1-yl)-1-(4-(trifluoromethyl)benzyl)-1H-indazole] | 10
12 | Cc1cc[nH]c1C(=O)Nc1nn(Cc2ccc(C(F)(F)F)cc2)c2ccccc12 [Compound 27, 3-methyl-N-(1-(4-(trifluoromethyl)benzyl)-1H-indazol-3-yl)-1H-pyrrole-2-carboxamide] | < 10
13 | O=C(Nc1nn(Cc2ccc(C(F)(F)F)cc2)c2ccccc12)c1cc(F)ccc1F [Compound 21, 2,5-difluoro-N-(1-(4-trifluoromethyl)benzyl)-1H-(indazol-3-yl)benzamide] | < 10
14 | Cc1ncsc1C(=O)Nc1nn(Cc2ccc(C(F)(F)F)cc2)c2cccc(Cl)c12 [Compound 120, N-(4-chloro-1-(4-(trifluoromethyl)benzyl)-1H-indazol-3-yl)-4-methylthiazole-5-carboxamide] | < 10
15 | O=C(Nc1nn(Cc2ccc(C(F)(F)F)cc2)c2ccccc12)c1ccccc1C(F)(F)F [Compound 50, 2-(trifluoromethyl)-N-(1-(4-(trifluoromethyl)benzyl)-1H-indazol-3-yl)benzamide] | < 10
16 | Cc1ccc(C(=O)Nc2nn(Cc3ccc(C(F)(F)F)cc3)c3ccccc23)cc1 [Compound 16] | < 10
17 | Cc1ncsc1C(=O)Nc1nn(Cc2ccc(Cl)cc2)c2ccccc12 [Compound 68, N-(1-(4-chlorobenzyl)-1H-indazol-3-yl)-4-methylthiazole-5-carboxamide] | 50
18 | O=C(Nc1nn(Cc2ccc(C(F)(F)F)cc2)c2ccccc12)c1cccnc1 [Compound 54, N-(1-(4-(trifluoromethyl)benzyl)-1H-indazol-3-yl)nicotinamide] | < 10
19 | Cc1ccc(Cn2nc(NC(=O)c3conc3C)c3ccccc32)cc1 [Compound 79, 3-methyl-N-(1-(4-methylbenzyl)-1H-indazol-3-yl)isoxazole-4-carboxamide] | < 10
20 | Cc1ncsc1C(=O)Nc1nn(Cc2ccc(C(F)(F)F)cc2)c2cc(C(F)(F)F)ccc12 [Compound 110, 4-methyl-N-(6-(trifluoromethyl)-1-(4-(trifluoromethyl)benzyl)-1H-indazol-3-yl)thiazole-5-carboxamide] | < 10
21 | Cc1occc1C(=O)Nc1nn(Cc2ccc(F)cc2)c2ccccc12 [Compound 74, N-(1-(4-fluorobenzyl)-1H-indazol-3-yl)-2-methylfuran-3-carboxamide] | < 10
22 | O=C(Nc1nn(Cc2ccc(CO)cc2)c2ccccc12)c1ccoc1 [Compound 104, N-(1-(4-(hydroxymethyl)benzyl)-1H-indazol-3-yl)furan-3-carboxamide] | < 10
23 | Cc1nocc1C(=O)Nc1nn(Cc2ccc(C(F)(F)F)nc2)c2ccccc12 [Compound 93, 3-methyl-N-(1-((6-(trifluoromethyl)pyridin-3-yl)methyl)-1H-indazol-3-yl)isoxazole-4-carboxamide] | < 10

Results, then the compound that gave them:

Row | inhibition at 50 µM [%] | SMILES
24 | 80 | CCC(=O)Nc1nn(Cc2ccc(C(F)(F)F)cc2)c2cncc(Cl)c12 [Compound 151, N-(4-chloro-1-(4-(trifluoromethyl)benzyl)-1H-pyrazolo[3,4-c]pyridin-3-yl)propionamide]
25 | < 10 | Cc1ccc2c(NC(=O)c3scnc3C)nn(Cc3ccc(C(F)(F)F)cc3)c2n1 [Compound 135, 4-methyl-N-(6-methyl-1-(4-(trifluoromethyl)benzyl)-1H-pyrazolo[3,4-b]pyridin-3-yl)thiazole-5-carboxamide]
26 | < 10 | O=C(Nc1nn(Cc2ccc(F)cc2)c2ccccc12)c1cccnn1 [Compound 76, N-(1-(4-fluorobenzyl)-1H-indazol-3-yl)pyridazine-3-carboxamide]
27 | < 10 | Cc1nocc1C(=O)Nc1nn(Cc2ccc(C(F)(F)F)cc2)c2cccc(Cl)c12 [Compound 118, N-(4-chloro-1-(4-(trifluoromethyl)benzyl)-1H-indazol-3-yl)-3-methylisoxazole-4-carboxamide]
28 | < 10 | O=C(Nc1nn(Cc2ccc(C(F)(F)F)cc2)c2ccccc12)c1cscc1Br [Compound 42, 4-bromo-N-(1-(4-(trifluoromethyl)benzyl)-1H-indazol-3-yl)thiophene-3-carboxamide]
29 | < 10 | O=C(Nc1nn(Cc2ccc(C(F)(F)F)nc2)c2cccc(Cl)c12)c1cccnn1 [Compound 121, N-(4-chloro-1-((6-(trifluoromethyl)pyridin-3-yl)methyl)-1H-indazol-3-yl)pyridazine-3-carboxamide]
30 | < 10 | Cc1csc(C(=O)Nc2nn(Cc3ccc(C(F)(F)F)cc3)c3ccccc23)n1 [Compound 11, 4-methyl-N-(1-(4-(trifluoromethyl)benzyl)-1H-indazol-3-yl)thiazole-2-carboxamide]
31 | < 10 | Cc1ccc(Cn2nc(N)c3ccccc32)cc1 [Compound 77, 1-(4-methylbenzyl)-1H-indazol-3-amine]
32 | < 10 | Cc1ccccc1C(=O)Nc1nn(Cc2ccc(C(F)(F)F)cc2)c2ccccc12 [Compound 15, 2-methyl-N-(1-(4-(trifluoromethyl)benzyl)-1H-indazol-3-yl)benzamide]
33 | 60 | Cc1ocnc1C(=O)Nc1nn(Cc2ccc(C(F)(F)F)cc2)c2ccccc12 [Compound 31, 5-methyl-N-(1-(4-(trifluoromethyl)benzyl)-1H-indazol-3-yl)oxazole-4-carboxamide]
